# Columns and labels:
# [1] = tested on: ApoE-knockout mice; assay: Long-term feeding experiment with ApoE-knockout mice; assay type: in vivo; conditions: ApoE-knockout mice on fat-containing Western diet; 5 ppm with the feed; after 13 months; over half of the untreated mice were dead
# Protocol: Long-Term Feeding Experiment with ApoE-Knockout Mice
# ApoE-knockout mice received a fat-containing diet (0.15% cholesterol, 21.4% crude fat, 19% casein; “Western diet”). The compound of Example 48 was administered in a proportion of 5 ppm with the feed to the treated group, while the control group received the food without active ingredient. After 13 months, over half of the untreated mice were dead, whereas 23 of 25 animals in the treated group were still alive.
# It is known from the literature that the ApoE-knockout mice used die from myocardial infarctions and manifestations of neuronal degeneration [Caligiuri, G., et al., Proc. Natl. Acad. Sci. USA, 96, 6920-6924 (1999); Walker, L. C. Am. J. Pathol., 151, (5), 1371-1377 81997)].
# [2] = tested on: atherosclerotic plaques; conditions: mouse test; Zaiss et al., Circulation 100 (18, Suppl. I):258 Abstr. 1343 (1999); cited from earlier work
Compound,animals in the treated group still alive [1],formation of atherosclerotic plaques [2]
"Cc1cc(C)c2c3ccccc3n(Cc3ccc([C@@H](C(=O)N[C@@H](CO)c4ccccc4)C4CCCC4)cc3)c2n1 [Example 48, (2S)-2-Cyclopentyl-2-[4-(2,4-dimethyl-pyrido[2,3-b]indol-9-ylmethyl)-phenyl]-N-(2-(1R)-hydroxy-1-phenyl-ethyl)-acetamide]",23 of 25,–
implitapide,–,prevents the formation of atherosclerotic plaques
